Measurements: article PMC7738880, “Identification of novel CD44v6-binding peptides that block CD44v6 and deliver a pro-apoptotic peptide to tumors to inhibit tumor growth and metastasis in mice” (Theranostics, 2021)
Residues, ends and D or L forms follow the SMILES beside them.

Key:
MDA-MB231 cells = assay: Saturation cell binding assay, MDA-MB231; parameters: species or system human; details: biotin-labeled peptide 0-256 µM, 4 °C, 1 h
Experimental: Supplementary Information
Supplementary Materials and Methods
Saturation binding assays to determine the cellular binding affinities of peptides Cells (5 × 10^3 cells per well in a 96-well plate) were incubated with 1% bovine serum albumin (BSA) for 30 min and with different concentrations of biotin-labeled peptides (0, 2, 4, 8, 16, 32, 64, 128, and 256 µM) at 4 °C for 1 h. After washing, the cells were incubated with horseradish peroxidase-conjugated neutravidin (1:10,000 dilution; ThermoFisher Scientific, Waltham, MA) for 30 min at room temperature. Enzymatic activity was detected using a 3,3ʹ,5,5ʹ-tetramethylbenzidine substrate (ThermoFisher Scientific), and the reaction was stopped using 2 M sulfuric acid. The absorbance at 450 nm was measured in each well using a microplate reader (Tecan, Mannedorf, Switzerland). The KD values were then calculated using GraphPad Prism 6 software (GraphPad Inc., La Jolla, CA). […]
10 µM biotin-labeled CD44v6-binding peptides at 4 °C for 1 h. […]
Scientific) for 30 min at room temperature. […]

4T1-luc cells = assay: 4T1-luc orthotopic spontaneous metastasis model; assay type: in vivo; details: for tumor growth, lung metastasis, survival rate and TUNEL-stained apoptosis, peptide combined with crizotinib 12.5 mg/kg: peptide 14.2 mg/kg i.v. plus crizotinib 12.5 mg/kg oral, versus crizotinib alone 25 mg/kg; for primary tumor growth, lung metastasis and survival, peptide combined with crizotinib 25 mg/kg: peptide 14.2 mg/kg i.v. plus crizotinib 25 mg/kg oral, versus single treatment; for luminescence signals and total photon flux from the whole body: n = 6/group; for number of lung tumor nodules: relative to saline and control peptide; for hematologic parameters and liver and kidney functional marker levels: peptide alone or in combination with crizotinib, compared with control peptide, n = 3/group
Experimental: 4T1-luc cells (1 × 10^6 cells) were orthotopically inoculated into the mammary fat pads in 6-week-old female BALB/c mice. Panc-1 cells (1 × 10^6 cells) were subcutaneously inoculated into lower right flank in 6-week-old female BALB/c nude mice To monitor 4T1-luc tumor growth, mice were intraperitoneally injected with D-luciferin (150 mg/kg body weight), incubated for 10 min, and subjected to a whole-body bioluminescence imaging using the IVIS imaging system (Perkin Elmer). At two weeks after the inoculation, mice were randomly sorted into groups based on the luminescence intensity (4T1-luc) or tumor size (Panc-1). CD44v6-binding peptides were administered intravenously to 4T1 tumor-bearing mice (n = 6 per group) through the tail vein (14.2 mg/kg body weight, thrice weekly for three weeks) alone or in combination with crizotinib. Crizotinib in 5% DMSO was administered orally (12.5 and 25 mg/kg body weight, twice weekly for three weeks). CD44v6-targeted pro-apoptotic peptides or CD44v6-binding peptides and pro-apoptotic peptide in combination were intravenously administered to 4T1 or Panc-1 tumor-bearing mice (n = 10 per group) through the tail vein (10 mg/kg body weight, thrice weekly for 3 weeks). Primary tumor growth was monitored by measuring tumor volumes using a caliper and total photon flux in the whole body using the IVIS imaging system. The body weights and tumor ulceration were monitored throughout the treatment period. At the end of the treatments, half of the mice were used for the collection of blood, sacrificed, and the primary tumor weights and numbers of metastatic tumor nodules in the isolated lungs were determined. The remaining mice were maintained until death to determine the survival rates. The hematological parameters and liver and kidney function markers in plasma and serum samples were analyzed as described above. The normal ranges of hematological parameters of the BALB/c mouse and BALB/c nude mouse were obtained from Charles River Laboratories website (www.criver.com).

[1] = system: MDA-MB231 subcutaneous tumors; assay: In vivo whole-body and ex vivo fluorescence imaging of tumor homing; parameters: species or system BALB/c nude mouse; details: Flamma 675 NIR dye-labeled peptide 1 mg/kg i.v.; for ex vivo accumulation in tumors versus organs: 6 h post-injection, n = 3/group; for in vivo fluorescence signals at tumor areas: imaging 1-6 h
Experimental: Mice for animal experiments were purchased from Orient Bio Inc. (Seongnam, Korea) and maintained in conformance with the Guidelines of the Institutional Animal Care and Use Committee of Kyungpook National University (permission no. 2014-1-121). A total of 1 × 10^6 MDA-MB231 cells were subcutaneously injected into the right flank of each 6-week-old female BALB/c nude mouse. When the tumor reached a volume of approximately 100 mm^3, the mouse was injected intravenously with Flamma 675 NIR fluorescence dye-labeled peptides (1 mg/kg body weight). Whole-body fluorescence imaging was performed under inhalational anesthesia using an IVIS imaging system (Perkin Elmer). After in vivo imaging, each mouse was euthanized, the tumor and control organs (liver, kidney, spleen, heart, and lung) were isolated, and ex vivo images were obtained using the IVIS imaging system.

[2] = peptide 14.2 mg/kg i.v. thrice weekly for three weeks

Structure (SMILES): CC[C@H](C)[C@H](NC(=O)[C@@H](NC(=O)[C@H](CC(N)=O)NC(=O)[C@H](CC(C)C)NC(=O)[C@H](CC(N)=O)NC(=O)[C@@H](N)CS)[C@@H](C)O)C(=O)N[C@@H](CC(=O)O)C(=O)N[C@H](C(=O)N[C@@H](CS)C(=O)O)[C@@H](C)O [NLN] (H-CNLNTIDTC-OH; N-terminus and C-terminus assumed)
- Kd (MDA-MB231 cells): 12 ± 5 µM
- tumor growth, lung metastasis, survival rate and TUNEL-stained apoptosis, peptide combined with crizotinib 12.5 mg/kg (4T1-luc cells): more efficiently than crizotinib alone
- primary tumor growth, lung metastasis and survival, peptide combined with crizotinib 25 mg/kg (4T1-luc cells): more efficiently than a single treatment
- body weight (4T1-luc cells; [2]): little effect
- monocyte population (4T1-luc cells; [2]): decreased below the normal ranges
- survival rate (4T1-luc cells; [2]): increased
- volumes of primary tumors (4T1-luc cells; [2]): decreased
- weights of isolated primary tumors (4T1-luc cells; [2]): decreased
- luminescence signals and total photon flux from the whole body (4T1-luc cells; [2]): decreased
- number of lung tumor nodules (4T1-luc cells; [2]): reduced number
- hematologic parameters and liver and kidney functional marker levels (4T1-luc cells): not significantly changed or remained within normal ranges
- ex vivo accumulation in tumors versus organs [1]: higher levels of NLN and NEW accumulation in tumors than in control organs
- in vivo fluorescence signals at tumor areas [1]: higher than those associated with the control peptide until 4 h

Structure (SMILES): CC(C)C[C@H](NC(=O)[C@H](CCC(N)=O)NC(=O)[C@H](Cc1c[nH]c2ccccc12)NC(=O)[C@H](CCC(=O)O)NC(=O)[C@H](CC(N)=O)NC(=O)[C@@H](N)CS)C(=O)N[C@@H](CCCCN)C(=O)N[C@@H](CO)C(=O)N[C@@H](CS)C(=O)O [NEW] (H-CNEWQLKSC-OH; N-terminus and C-terminus assumed)
- Kd (MDA-MB231 cells): 18 ± 6 µM
- tumor growth, lung metastasis, survival rate and TUNEL-stained apoptosis, peptide combined with crizotinib 12.5 mg/kg (4T1-luc cells): more efficiently than crizotinib alone
- primary tumor growth, lung metastasis and survival, peptide combined with crizotinib 25 mg/kg (4T1-luc cells): more efficiently than a single treatment
- body weight (4T1-luc cells; [2]): little effect
- survival rate (4T1-luc cells; [2]): increased
- volumes of primary tumors (4T1-luc cells; [2]): decreased
- weights of isolated primary tumors (4T1-luc cells; [2]): decreased
- luminescence signals and total photon flux from the whole body (4T1-luc cells; [2]): decreased
- number of lung tumor nodules (4T1-luc cells; [2]): reduced number
- hematologic parameters and liver and kidney functional marker levels (4T1-luc cells): not significantly changed or remained within normal ranges
- ex vivo accumulation in tumors versus organs [1]: higher levels of NLN and NEW accumulation in tumors than in control organs
- in vivo fluorescence signals at tumor areas [1]: higher than those associated with the control peptide until 4 h
